Measurements: patent US20230135894A1, “MK2 DEGRADERS AND USES THEREOF” (Kymera Therapeutics, Inc., priority 2021, published 2023)

Assays:
MK2 [1] = target: T1, MK2 (Homo sapiens, UniProt P49137); assay: MK2 degradation in human THP-1 monocytic cells (MSD, 24 h); assay type: cell-based; design: endogenous in cells; conditions: for Dmax: THP-1, THP-1 cells; for DC50: THP-1 cells, read-out: MK2 MSD THP-1 degradation 24 h GMean External Abs DC50
Summary of the method: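 THP-1 cells (200,000/well) treated 24 h at 37 °C with compound dilution series (up to 10 points, 0.1% DMSO). MK2 in RIPA lysates quantified by MSD sandwich immunoassay. DC50 from 4-parameter logistic fit, DMSO-treated cells as high and lysis buffer as low signal.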

MK2 [2] = target: T1, MK2; assay: MK2 degradation in human SW1353 cells (MSD, 24 h); assay type: cell-based; design: endogenous in cells; host or cells: SW-1353 (ATCC HTB-94); key to MK2 MSD SW1353 degradation 24 h GMean External Abs DC50: A (<0.001 μM); B (0.001-0.01 μM); C (0.01-0.1 μM); D (>0.1 μM); —: “-”=not tested or inactive; conditions: for Dmax: read-out: MK2 MSD SW 1353 24 h Dmax %; for DC50: read-out: MK2 MSD SW1353 degradation 24 h GMean External Abs DC50
Summary of the method: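 SW1353 chondrosarcoma cells were treated with up to 10-point serial dilutions (0.1% DMSO) for 24 h at 37 °C, then lysed in RIPA buffer. MK2 levels were quantified by MSD sandwich immunoassay; DC50 came from a 4-parameter logistic fit normalised to DMSO-treated cells (high) and lysis buffer (low).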

T1 sequence (P49137 whole entry): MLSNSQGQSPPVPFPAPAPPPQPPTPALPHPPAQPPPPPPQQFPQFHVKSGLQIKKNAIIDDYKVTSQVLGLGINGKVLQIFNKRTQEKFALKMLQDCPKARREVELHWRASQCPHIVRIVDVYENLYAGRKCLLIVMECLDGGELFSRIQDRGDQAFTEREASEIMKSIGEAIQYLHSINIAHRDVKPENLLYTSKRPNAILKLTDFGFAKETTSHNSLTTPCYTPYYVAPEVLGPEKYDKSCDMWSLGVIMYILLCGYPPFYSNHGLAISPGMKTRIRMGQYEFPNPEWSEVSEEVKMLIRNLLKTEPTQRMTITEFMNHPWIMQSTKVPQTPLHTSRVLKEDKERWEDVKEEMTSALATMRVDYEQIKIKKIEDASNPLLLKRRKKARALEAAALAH

Dmax (MK2 [1]) [%] | DC50 (MK2 [1]) [µM] | MK2 MSD SW1353 degradation 24 h GMean External Abs DC50 (MK2 [2]) | Dmax (MK2 [2]) [%] | DC50 (MK2 [2]) [µM] | SMILES
50 to 75 | 0.001 to 0.01 | — | > 75 |  | Cc1cc(-c2cc(-c3cc4c([nH]3)CCNC4=O)ccn2)cc(C)c1N1CCN(CC2CCN(c3ccc4c(c3)n(C)c(=O)n4C3CCC(=O)NC3=O)CC2)CC1 (centres unmarked) [Compound I-207]
50 to 75 | 0.001 to 0.01 |  | > 75 | 0.001 to 0.01 | C[C@@H]1CNc2c(sc3ccc4nc(-c5ccc(N6CCN(CCCCCc7cccc8c7n(C)c(=O)n8C7CCC(=O)NC7=O)CC6)cc5)ccc4c23)C(=O)N1 (some centres unmarked) [Compound I-171]
50 to 75 | 0.01 to 0.1 |  | > 75 | 0.01 to 0.1 | O=C1CCN(c2cncc3c(N4CCC(CN5CCN(c6ccc(-c7cc(-c8cc9c([nH]8)C8(CC8)CNC9=O)ccn7)cc6)CC5)CC4)cccc23)C(=O)N1 [Compound I-211]
> 75 | < 0.001 |  | > 75 | < 0.001 | C[C@@H]1CNc2c(sc3ccc4nc(-c5ccc(N6CCN(CCCc7ccc8c(c7)n(C)c(=O)n8C7CCC(=O)NC7=O)CC6)cc5)ccc4c23)C(=O)N1 (some centres unmarked) [Compound I-173]
< 50 | > 0.1 |  | < 50 | > 0.1 | CN1CC2(CNC(=O)c3c2[nH]c2c3CCc3cnc(-c4ccc(CN5CCC(OCC#Cc6cccc7c6n(C)c(=O)n7C6CCC(=O)NC6=O)CC5)cc4F)cc3-2)C1 (centres unmarked) [Compound I-2]
< 50 | > 0.1 |  | < 50 | > 0.1 | Cn1c(=O)n(C2CCC(=O)NC2=O)c2cccc(CCCCCN3CCN(c4ccc(F)c(-c5cc(-c6cc7c([nH]6)CCNC7=O)ccn5)c4)CC3)c21 (centres unmarked) [Compound I-134]
< 50 | > 0.1 |  | < 50 | > 0.1 | C[C@@H]1CNc2c(sc3ccc4nc(-c5cc(N6CCN(CC7CCN(c8ccc9c(c8)n(C)c(=O)n9C8CCC(=O)NC8=O)CC7)CC6)nc(C(C)(C)O)c5)ccc4c23)C(=O)N1 (some centres unmarked) [Compound I-219]
< 50 | > 0.1 |  | < 50 | > 0.1 | Cn1c(=O)n(C2CCC(=O)NC2=O)c2cccc(CCCCN3CC4(CCN(c5ccc6c(c5)Cn5cc(-c7ccc(F)cc7)cc5-c5nccn5-6)C4)C3)c21 (centres unmarked) [Compound I-167]
> 75 | 0.001 to 0.01 |  | > 75 | 0.001 to 0.01 | C[C@@H]1Cc2[nH]c(-c3ccnc(-c4ccc(N5CCC(CN6CCC(c7cccc8c7n(C)c(=O)n8C7CCC(=O)NC7=O)CC6)CC5)cc4)c3)cc2C(=O)N1 (some centres unmarked) [Compound I-248]
> 75 | 0.001 to 0.01 |  | > 75 | 0.001 to 0.01 | C[C@@H]1CNc2c(sc3ccc4nc(-c5cccc(N6CCN(C(=O)COCCOCCOCCOCCc7ccc8c(c7)n(C)c(=O)n8C7CCC(=O)NC7=O)CC6)c5)ccc4c23)C(=O)N1 (some centres unmarked) [Compound I-36]
> 75 | < 0.001 |  | > 75 | < 0.001 | C[C@@H]1CNc2c(sc3ccc4nc(-c5cccc(N6CCN(CCCc7ccc8c(c7)n(C)c(=O)n8C7CCC(=O)NC7=O)CC6)c5)ccc4c23)C(=O)N1 (some centres unmarked) [Compound I-118]
> 75 | < 0.001 |  | > 75 | < 0.001 | Cn1c(=O)n(C2CCC(=O)NC2=O)c2ccc(N3CC(CN4CCN(c5ccc(-c6cc(-c7cc8c([nH]7)CCNC8=O)ccn6)c(F)c5)CC4)C3)cc21 (centres unmarked) [Compound I-423]
> 75 | 0.01 to 0.1 |  | > 75 | 0.01 to 0.1 | C[C@@H]1CNc2c(sc3ccc4nc(-c5cccc(N6CCN(CCCCCCCCCCc7ccc8c(c7)n(C)c(=O)n8C7CCC(=O)NC7=O)CC6)c5)ccc4c23)C(=O)N1 (some centres unmarked) [Compound I-178]
> 75 | < 0.001 |  | > 75 | < 0.001 | C[C@@H]1CNc2c(sc3ccc4nc(-c5cncc(N6CCN(CC7CCN(c8ccc9c(c8)n(C)c(=O)n9C8CCC(=O)NC8=O)CC7)CC6)c5)ccc4c23)C(=O)N1 (some centres unmarked) [Compound I-161]
